Test system: E-cadherin expression in SW620 cells
Assay: E-cadherin expression, in-cell Western (ICW), SW620 cells
Type: cell-based
Settings: Homo sapiens, SW-620, 24 h, change in expression level of E-cadherin in response to 10 μM compound, 24 hours, SW620 cells
Procedure: SW620 and H520 cells (5×10^4/100 μL) were seeded in a 96-well plate prior to treatment. Cells were treated with 10 μM concentration of synthesized compound in quadruplicate for 24 hours in RPMI 1640 supplemented medium and 100 μg/mL penicillin-streptomycin. The cells were then fixed with 100% methanol for 20 minutes at 4° C. The wells were then washed 2 times with PBS, permeabilized in 2% bovine serum albumin (BSA) and 0.2% TritonX-100 in PBS for 30 minutes at room temperature with gentle agitation, and blocked in LI-COR blocking buffer for 30 minutes at room temperature with gentle agitation. The cells were then incubated with the following primary antibodies: anti-E-Cadherin (1:500) and anti-α-Tubulin (1:1000) diluted in blocking buffer (1:1 dilution in PBS) for 2 hours at room temperature with gentle agitation. The cells were washed 4 times in PBS-T for 5 minutes each, and then incubated with the following secondary antibodies conjugated to a fluorescent entity: IRDye 800-conjugated goat anti-rabbit IgG (1:1000) and IRDye-700-conjugated goat anti-mouse IgG (1:2000) in blocking buffer (1:1 dilution in PBS) with gentle agitation for 1 h at room temperature. The cells were washed 4 times in PBS-T for 5 minutes each followed by a single wash with PBS. All liquid was removed from the wells and the plates were visualized and analyzed on the Odyssey IR imaging system (LI-COR Biosciences).
The assay was further optimized in the following manner. The cells were washed 2 times with PBS, fixed in 100% methanol at room temperature for 15 minutes, and again washed 2 times with PBS. The cells were then incubated with the following primary antibodies: anti-E-Cadherin (1:200) and anti-α-Tubulin (1:2000) diluted in ice cold 2% bovine serum albumin (BSA) and 0.2% TritonX-100 in PBS for 1 hour at room temperature with gentle agitation. The cells were washed 2 times in PBS and then incubated with the following secondary antibodies conjugated to a fluorescent entity: Licor 800-conjugated goat anti-rabbit IgG (1:2000) and IRDye-700-conjugated goat anti-mouse IgG (1:2000) in ice cold 2% BSA and 0.2% TritonX-100 in PBS with gentle agitation for 45 minutes at room temperature. The wells were washed 2 times in PBS, dried, and analyzed as previously mentioned.
N-Acetamidoalkyl-5-arylisoxazole-3-carboxamide analogs were synthesized as described above. Changes in expression level of E-cadherin in response to 10 μM compound in SW620 cells was determined in a cell-based functional assay as described above, and the data are shown in Table III. The compound number corresponds to the compound numbers used in Table II.
EC50 of inducement of E-cadherin expression in SW620 cells was determined in a cell-based functional assay as described above, and the data are shown in Table V. The compound number corresponds to the compound numbers used in Table IV.

Going from `O=C(NCCCNC(=O)c1cccc(Cl)n1)c1cc(-c2cccs2)on1` [Compound 81, N-(3-(6-chloropicolinamido)propyl)-5-(thiophen-2-yl)isoxazole-3-carboxamide] to `O=C(NCCCNC(=O)c1cncc(Cl)n1)c1cc(-c2cccs2)on1` [Compound 83, N-(3-(6-chloropyrazine-2-carboxamido)propyl)-5-(thiophen-2-yl)isoxazole-3-carboxamide], the fold induction at 10 µM falls from 3.09 to 2.64.

First: N#Cc1ccnc(C(=O)NCCCNC(=O)c2cc(-c3cccs3)on2)c1 [Compound 82, N-(3-(4-cyanopicolinamido)propyl)-5-(thiophen-2-yl)isoxazole-3-carboxamide]
Second: N#Cc1ccnc(C(=O)NCCCNC(=O)c2cc(-c3ccccc3)on2)c1 [Compound 93, N-(3-(4-cyanopicolinamido)propyl)-5-phenylisoxazole-3-carboxamide]
The fold induction at 10 µM of the first is lower: 2.8 for the first, 2.88 for the second.

First: O=C(NCCCNC(=O)c1cc2ccccc2o1)c1cc(-c2cccs2)on1 [Compound 85, N-(3-(benzofuran-2-carboxamido)propyl)-5-(thiophen-2-yl)isoxazole-3-carboxamide]
Second: O=C(NCCCNC(=O)c1cc2ccccc2o1)c1cc(-c2ccccc2)on1 [Compound 96, N-(3-(benzofuran-2-carboxamido)propyl)-5-phenylisoxazole-3-carboxamide]
The fold induction at 10 µM of the first is higher: 3.26 for the first, 2.58 for the second.

Compared with `O=C(NCCCNC(=O)c1ccc2ccccc2n1)c1cc(-c2ccccc2)on1` [Compound 86, 5-phenyl-N-(3-(quinoline-2-carboxamido)propyl)isoxazole-3-carboxamide], `O=C(NCCCNC(=O)c1cccc(Cl)n1)c1cc(-c2ccccc2)on1` [Compound 92, N-(3-(6-chloropicolinamido)propyl)-5-phenylisoxazole-3-carboxamide] is lower in fold induction at 10 µM: 3.48 for the first, 3.13 for the second.

Going from `O=C(NCCCNC(=O)c1cnc2ccccn12)c1cc(-c2ccccc2)on1` [Compound 87, N-(3-(imidazo[1,2-a]pyridine-3-carboxamido)propyl)-5-phenylisoxazole-3-carboxamide] to `Cn1cnc(C(=O)NCCCNC(=O)c2cc(-c3ccccc3)on2)c1` [Compound 116, N-(3-(1-methyl-1H-imidazole-4-carboxamido)propyl)-5-phenylisoxazole-3-carboxamide], the fold induction at 10 µM rises from 2.4 to 2.6.

Compared with `O=C(NCCCNC(=O)c1ccc(C(F)(F)F)o1)c1cc(-c2ccccc2)on1` [Compound 89, 5-phenyl-N-(3-(5-(trifluoromethyl)furan-2-carboxamido)propyl)isoxazole-3-carboxamide], `CC(C)(C)c1ccc(C(=O)NCCCNC(=O)c2cc(-c3ccccc3)on2)o1` [Compound 112, N-(3-(5-(tert-butyl)furan-2-carboxamido)propyl)-5-phenylisoxazole-3-carboxamide] is higher in fold induction at 10 µM: 2.13 for the first, 3.86 for the second.

Going from `Cc1nc(C(=O)NCCCNC(=O)c2cc(-c3ccccc3)on2)no1` [Compound 91, 5-methyl-N-(3-(5-phenylisoxazole-3-carboxamido)propyl)-1,2,4-oxadiazole-3-carboxamide] to `Cc1cncc(C(=O)NCCCNC(=O)c2cc(-c3ccccc3)on2)n1` [Compound 111, N-(3-(6-methylpyrazine-2-carboxamido)propyl)-5-phenylisoxazole-3-carboxamide], the fold induction at 10 µM rises from 3.47 to 4.13.

First: O=C(NCCCNC(=O)c1cncc(Cl)n1)c1cc(-c2ccccc2)on1 [Compound 94, N-(3-(6-chloropyrazine-2-carboxamido)propyl)-5-phenylisoxazole-3-carboxamide]
Second: Nc1cncc(C(=O)NCCCNC(=O)c2cc(-c3ccccc3)on2)n1 [Compound 118, N-(3-(6-aminopyrazine-2-carboxamido)propyl)-5-phenylisoxazole-3-carboxamide]
The fold induction at 10 µM of the first is lower: 3.69 for the first, 4.38 for the second.

First: O=C(Cc1c[nH]c2ccccc12)NCCCNC(=O)c1cc(-c2ccccc2)on1 [Compound 95, N-(3-(2-(1H-indol-3-yl)acetamido)propyl)-5-phenylisoxazole-3-carboxamide]
Second: O=C(NCCCNC(=O)c1occc1-c1ccccc1)c1cc(-c2ccccc2)on1 [Compound 114, 5-phenyl-N-(3-(3-phenylfuran-2-carboxamido)propyl)isoxazole-3-carboxamide]
The fold induction at 10 µM of the first is lower: 4.2 for the first, 4.7 for the second.

First: Cc1cncc(C(=O)NCCCNC(=O)c2cc(-c3cccs3)on2)n1 [Compound 97, N-(3-(6-methylpyrazine-2-carboxamido)propyl)-5-(thiophen-2-yl)isoxazole-3-carboxamide]
Second: Cn1cnc(C(=O)NCCCNC(=O)c2cc(-c3cccs3)on2)c1 [Compound 103, N-(3-(1-methyl-1H-imidazole-4-carboxamido)propyl)-5-(thiophen-2-yl)isoxazole-3-carboxamide]
The fold induction at 10 µM of the first is higher: 3.82 for the first, 3.02 for the second.

Going from `CC(C)(C)c1ccc(C(=O)NCCCNC(=O)c2cc(-c3cccs3)on2)o1` [Compound 98, N-(3-(5-(tert-butyl)furan-2-carboxamido)propyl)-5-(thiophen-2-yl)isoxazole-3-carboxamide] to `O=C(NCCCNC(=O)c1ccc(Cl)o1)c1cc(-c2cccs2)on1` [Compound 99, N-(3-(5-chlorofuran-2-carboxamido)propyl)-5-(thiophen-2-yl)isoxazole-3-carboxamide], the fold induction at 10 µM rises from 3.65 to 3.66.

First: O=C(NCCCNC(=O)c1occc1-c1ccccc1)c1cc(-c2cccs2)on1 [Compound 100, N-(3-(3-phenylfuran-2-carboxamido)propyl)-5-(thiophen-2-yl)isoxazole-3-carboxamide]
Second: O=C(NCCCNC(=O)c1cc(-c2cccs2)on1)c1cc(-c2ccccc2)ccn1 [Compound 106, N-(3-(4-phenylpicolinamido)propyl)-5-(thiophen-2-yl)isoxazole-3-carboxamide]
The fold induction at 10 µM of the first is lower: 2.37 for the first, 3.69 for the second.

First: CCc1ccc(C(=O)NCCCNC(=O)c2cc(-c3cccs3)on2)o1 [Compound 101, N-(3-(5-ethylfuran-2-carboxamido)propyl)-5-(thiophen-2-yl)isoxazole-3-carboxamide]
Second: CCc1ccc(C(=O)NCCCNC(=O)c2cc(-c3ccccc3)on2)o1 [Compound 115, N-(3-(5-ethylfuran-2-carboxamido)propyl)-5-phenylisoxazole-3-carboxamide]
The fold induction at 10 µM of the first is higher: 4.24 for the first, 3.83 for the second.

First: O=C(NCCCNC(=O)c1ccno1)c1cc(-c2cccs2)on1 [Compound 102, N-(3-(isoxazole-5-carboxamido)propyl)-5-(thiophen-2-yl)isoxazole-3-carboxamide]
Second: O=C(NCCCNC(=O)c1cnn[nH]1)c1cc(-c2cccs2)on1 [Compound 104, N-(3-(1H-1,2,3-triazole-5-carboxamido)propyl)-5-(thiophen-2-yl)isoxazole-3-carboxamide]
The fold induction at 10 µM of the first is lower: 2.87 for the first, 3.13 for the second.

First: O=C(NCCCNC(=O)c1cccc(C(F)(F)F)n1)c1cc(-c2cccs2)on1 [Compound 107, 5-(thiophen-2-yl)-N-(3-(6-(trifluoromethyl)picolinamido)propyl)isoxazole-3-carboxamide]
Second: O=C(NCCCNC(=O)c1nc2ncccn2n1)c1cc(-c2cccs2)on1 [Compound 108, N-(3-([1,2,4]triazolo[1,5-a]pyrimidine-2-carboxamido)propyl)-5-(thiophen-2-yl)isoxazole-3-carboxamide]
The fold induction at 10 µM of the first is higher: 4.15 for the first, 2.45 for the second.

First: Cc1cc(C)c(C(=O)NCCCNC(=O)c2cc(-c3cccs3)on2)o1 [Compound 110, N-(3-(3,5-dimethylfuran-2-carboxamido)propyl)-5-(thiophen-2-yl)isoxazole-3-carboxamide]
Second: O=C(NCCCNC(=O)c1cnn[nH]1)c1cc(-c2ccccc2)on1 [Compound 117, N-(3-(1H-1,2,3-triazole-5-carboxamido)propyl)-5-phenylisoxazole-3-carboxamide]
The fold induction at 10 µM of the first is higher: 3.74 for the first, 3.71 for the second.

Same assay, conditions: Homo sapiens, SW-620; inducement of E-cadherin expression in SW620 cells

First: O=C(Cc1c[nH]c2ccccc12)NCCCNC(=O)c1cc(-c2ccccc2)on1 [Compound 95, N-(3-(2-(1H-indol-3-yl)acetamido)propyl)-5-phenylisoxazole-3-carboxamide]
Second: O=C(NCCCNC(=O)c1occc1-c1ccccc1)c1cc(-c2ccccc2)on1 [Compound 114, 5-phenyl-N-(3-(3-phenylfuran-2-carboxamido)propyl)isoxazole-3-carboxamide]
The EC50 of the first is 2.5-fold lower: 2.57 µM for the first, 6.35 µM for the second.

First: CCc1ccc(C(=O)NCCCNC(=O)c2cc(-c3cccs3)on2)o1 [Compound 101, N-(3-(5-ethylfuran-2-carboxamido)propyl)-5-(thiophen-2-yl)isoxazole-3-carboxamide]
Second: O=C(NCCCNC(=O)c1cccc(C(F)(F)F)n1)c1cc(-c2cccs2)on1 [Compound 107, 5-(thiophen-2-yl)-N-(3-(6-(trifluoromethyl)picolinamido)propyl)isoxazole-3-carboxamide]
The EC50 of the first is 1.7-fold lower: 4.12 µM for the first, 6.95 µM for the second.

`Cc1cncc(C(=O)NCCCNC(=O)c2cc(-c3ccccc3)on2)n1` [Compound 111, N-(3-(6-methylpyrazine-2-carboxamido)propyl)-5-phenylisoxazole-3-carboxamide] and `Nc1cncc(C(=O)NCCCNC(=O)c2cc(-c3ccccc3)on2)n1` [Compound 118, N-(3-(6-aminopyrazine-2-carboxamido)propyl)-5-phenylisoxazole-3-carboxamide] are within 1.5-fold of each other in EC50: 7.2 µM for the first, 5.45 µM for the second.

Same assay, conditions: change in expression level of E-cadherin in response to 10 μM compound, 24 hours, SW620 cells

In the case of `Nc1ccc(C(=O)NCCCNC(=O)c2cc(-c3ccccc3)on2)cn1` [Compound 90, N-(3-(6-aminonicotinamido)propyl)-5-phenylisoxazole-3-carboxamide], the “fold change SW620 ICW” value is reported as 2.50 fold.

Reference: patent US9783510B2, “Small molecule mediated transcriptional induction of E-cadherin” (Vanderbilt University, priority 2014, dated 2017)
